± gives the expanded uncertainty stated by the source.

A short description of this data set: activity coefficient (dimensionless); of the first substance listed, at infinite dilution; xn = mol fraction of the nth substance listed. The settings on record: Liquid, Chromatography, x1 = 0.

Consider `CO` [methanol] + CCCCn1cc[n+](C)c1.[Cl-], for which the activity coefficient (323 K) was found to be 0.1 ± 0.03, the activity coefficient (333 K) was found to be 0.104 ± 0.03, the activity coefficient (343 K) came out at 0.109 ± 0.03 and the activity coefficient (353 K) is 0.115 ± 0.03.
Turning to `c1ccoc1` [furan] + CCCCn1cc[n+](C)c1.[Cl-], the activity coefficient amounted to 1.41 ± 0.13 (313 K); 1.48 ± 0.13 (323 K); 1.56 ± 0.14 (333 K); 1.66 ± 0.15 (343 K); 1.75 ± 0.16 (353 K).
`Cc1ccco1` [2-methylfuran] + CCCCn1cc[n+](C)c1.[Cl-]: the activity coefficient (313 K) turned out to be 3.61 ± 0.33; the activity coefficient (323 K) stood at 3.76 ± 0.35; the activity coefficient (333 K) came out at 3.84 ± 0.35; the activity coefficient (343 K) turned out to be 3.96 ± 0.36; the activity coefficient (353 K) came out at 4.08 ± 0.37.
As to `CCc1ccco1` [2-ethylfuran] + CCCCn1cc[n+](C)c1.[Cl-], the activity coefficient amounted to 5.85 ± 0.54 (313 K); 6 ± 0.55 (323 K); 6.12 ± 0.56 (333 K); 6.23 ± 0.57 (343 K); 6.41 ± 0.59 (353 K).
The corresponding values for `CCCO` [propan-1-ol] + CCCC[n+]1ccn(C)c1.O=S(=O)([N-]S(=O)(=O)C(F)(F)F)C(F)(F)F are 1.94 ± 0.17, 1.77 ± 0.16, 1.63 ± 0.14, 1.51 ± 0.13 and 1.4 ± 0.12.
In the case of `CCO` [ethanol] + CCCCn1cc[n+](C)c1.[Cl-], the activity coefficient was determined as 0.208 ± 0.032 (323 K), 0.213 ± 0.032 (333 K), 0.22 ± 0.032 (343 K) and 0.229 ± 0.033 (353 K).
`Cc1ccc(C)o1` [2,5-dimethylfuran] + CCCC[n+]1ccn(C)c1.O=S(=O)([N-]S(=O)(=O)C(F)(F)F)C(F)(F)F: the activity coefficient turned out to be 1.83 ± 0.16 (313 K); 1.85 ± 0.16 (323 K); 1.86 ± 0.16 (333 K); 1.88 ± 0.17 (343 K); 1.88 ± 0.17 (353 K).
With `Cc1ccccc1` [toluene] + CCCCn1cc[n+](C)c1.[Cl-], the activity coefficient was 7.19 ± 0.66 (313 K); 7.24 ± 0.67 (323 K); 7.23 ± 0.66 (333 K); 7.3 ± 0.67 (343 K); 7.38 ± 0.68 (353 K).
Consider `CCCO` [propan-1-ol] + CCCCn1cc[n+](C)c1.[Cl-], for which the activity coefficient by setting is: (333 K) 0.286 ± 0.035; (343 K) 0.292 ± 0.036; (353 K) 0.301 ± 0.036.
As for `CCc1ccco1` [2-ethylfuran] + CCCC[n+]1ccn(C)c1.O=S(=O)([N-]S(=O)(=O)C(F)(F)F)C(F)(F)F, the activity coefficient worked out at 1.47 ± 0.13 (313 K); 1.49 ± 0.13 (323 K); 1.51 ± 0.13 (333 K); 1.52 ± 0.13 (343 K); 1.54 ± 0.13 (353 K).
On the same counts, the results for `c1ccccc1` [benzene] + CCCC[n+]1ccn(C)c1.O=S(=O)([N-]S(=O)(=O)C(F)(F)F)C(F)(F)F are 0.938 ± 0.08, 0.957 ± 0.081, 0.975 ± 0.083, 0.99 ± 0.084 and 1.01 ± 0.09.
On the same counts, the results for `CCc1ccccc1` [ethylbenzene] + CCCC[n+]1ccn(C)c1.O=S(=O)([N-]S(=O)(=O)C(F)(F)F)C(F)(F)F are 1.98 ± 0.18, 2.01 ± 0.18, 2.01 ± 0.18, 2.05 ± 0.18 and 2.07 ± 0.18.
The corresponding values for `c1ccccc1` [benzene] + CCCCn1cc[n+](C)c1.[Cl-] are 4.09 ± 0.38, 4.14 ± 0.38, 4.15 ± 0.38, 4.15 ± 0.38 and 4.12 ± 0.38.
Turning to `CCc1ccccc1` [ethylbenzene] + CCCCn1cc[n+](C)c1.[Cl-], the activity coefficient (313 K) worked out at 12.5 ± 1.2; the activity coefficient (323 K) came to 12.5 ± 1.2; the activity coefficient (333 K) was 12.4 ± 1.1; the activity coefficient (343 K) came to 12.4 ± 1.1; the activity coefficient (353 K) stood at 12.4 ± 1.1.
For `Cc1ccccc1` [toluene] + CCCC[n+]1ccn(C)c1.O=S(=O)([N-]S(=O)(=O)C(F)(F)F)C(F)(F)F, the activity coefficient amounted to 1.31 ± 0.11 (313 K); 1.34 ± 0.12 (323 K); 1.37 ± 0.12 (333 K); 1.39 ± 0.12 (343 K); 1.42 ± 0.12 (353 K).
For the compound `CO` [methanol] + CCCC[n+]1ccn(C)c1.O=S(=O)([N-]S(=O)(=O)C(F)(F)F)C(F)(F)F, the activity coefficient (313 K) was 1.26 ± 0.11; the activity coefficient (323 K) came to 1.21 ± 0.1; the activity coefficient (333 K) is 1.09 ± 0.09; the activity coefficient (343 K) stood at 1.06 ± 0.09; the activity coefficient (353 K) turned out to be 1.03 ± 0.09.
Consider `Clc1ccccc1` [chlorobenzene] + CCCC[n+]1ccn(C)c1.O=S(=O)([N-]S(=O)(=O)C(F)(F)F)C(F)(F)F, for which the activity coefficient amounted to 1.5 ± 0.13 (313 K); 1.52 ± 0.13 (323 K); 1.53 ± 0.13 (333 K); 1.54 ± 0.13 (343 K); 1.54 ± 0.13 (353 K).
Take `Cc1ccc(C)o1` [2,5-dimethylfuran] + CCCCn1cc[n+](C)c1.[Cl-]: the activity coefficient was found to be 9.51 ± 0.87 (313 K); 9.6 ± 0.88 (323 K); 9.61 ± 0.88 (333 K); 9.64 ± 0.89 (343 K); 9.76 ± 0.9 (353 K).
On the same counts, the results for `Clc1ccccc1` [chlorobenzene] + CCCCn1cc[n+](C)c1.[Cl-] are 3.41 ± 0.31, 3.58 ± 0.33, 3.71 ± 0.34, 3.82 ± 0.35 and 3.96 ± 0.36.
On the same counts, the results for `CCO` [ethanol] + CCCC[n+]1ccn(C)c1.O=S(=O)([N-]S(=O)(=O)C(F)(F)F)C(F)(F)F are 1.6 ± 0.14, 1.48 ± 0.13, 1.37 ± 0.12, 1.28 ± 0.11 and 1.2 ± 0.1.
The corresponding values for `c1ccoc1` [furan] + CCCC[n+]1ccn(C)c1.O=S(=O)([N-]S(=O)(=O)C(F)(F)F)C(F)(F)F are 0.678 ± 0.06, 0.695 ± 0.061, 0.711 ± 0.063, 0.727 ± 0.064 and 0.739 ± 0.065.
Turning to `Cc1ccco1` [2-methylfuran] + CCCC[n+]1ccn(C)c1.O=S(=O)([N-]S(=O)(=O)C(F)(F)F)C(F)(F)F, the activity coefficient is, setting by setting: (313 K) 1.1 ± 0.09; (323 K) 1.12 ± 0.1; (333 K) 1.15 ± 0.1; (343 K) 1.17 ± 0.1; (353 K) 1.18 ± 0.1.

The values are drawn from the NIST ThermoML archive (doi:10.1016/j.fluid.2019.01.028).
